Structures can show the parent of a compound that is named as a salt.
Target: recombinant human PAI-1 (Homo sapiens, UniProt P05121)
Test: Test Example 1: human PAI-1 inhibitory activity (tPA fluorogenic substrate, pH7.5 Tris buffer)
Format: biochemical
Design: purchased Molecular Innovations, Inc
Settings: for Inhibition Rate of Human PAI-1 Activity (%): Tris buffer pH7.5
[1] = pH 7.5, read-out: Inhibition Rate of Human PAI-1 Activity (%)

Chain of recombinant human PAI-1 (P05121 24-402): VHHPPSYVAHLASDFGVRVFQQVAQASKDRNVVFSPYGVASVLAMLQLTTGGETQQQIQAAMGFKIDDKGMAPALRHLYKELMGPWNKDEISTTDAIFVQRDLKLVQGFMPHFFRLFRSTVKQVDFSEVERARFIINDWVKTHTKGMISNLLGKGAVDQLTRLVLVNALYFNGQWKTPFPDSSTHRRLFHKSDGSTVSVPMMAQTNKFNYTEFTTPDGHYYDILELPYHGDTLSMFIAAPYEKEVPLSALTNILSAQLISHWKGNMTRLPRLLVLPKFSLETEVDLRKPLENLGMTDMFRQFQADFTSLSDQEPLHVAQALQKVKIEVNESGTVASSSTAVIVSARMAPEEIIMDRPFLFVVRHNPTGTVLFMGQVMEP
Protocol: In a 96-well multiplate (black), 1.5 μl of DMSO solution of the present application compound prepared to achieve 80-fold the test concentration (=the final concentration when fluorogenic substrate is added) was diluted with 52.5 μl of pH7.5 Tris buffer. […] Furthermore, 30 μl of 800 IU/ml two-chain tPA (Activity Standard; American diagnostics, inc.) prepared by Tris buffer was added, and the mixed solution was incubated for 15 minutes at room temperature. To this, 30 μl of 400 μM fluorogenic substrate (Pyr-Gly-Arg-MCA; Peptide Institute, Inc.) for tPA prepared by Tris buffer was added and reacted for 30 minutes at room temperature.
<Composition of pH7.5 Tris Buffer)

| Compound | Inhibition Rate of Human PAI-1 Activity (%) (compound 5 μM) | Inhibition Rate of Human PAI-1 Activity (%) (compound 10 μM) | Inhibition Rate of Human PAI-1 Activity (%) (compound 25 μM) | inhibition at 5 µM [1] | inhibition at 10 µM [1] |
| --- | --- | --- | --- | --- | --- |
| O=C(O)Cc1cc(-c2ccc(OC(F)(F)F)cc2)ccc1OCc1ccccc1 [Compound 1, [4-benzyloxy-4′-(trifluoromethoxy)biphenyl-3-yl]acetic acid] | 18% | 31% | – | – | – |
| O=C(O)/C=C/c1cc(-c2ccc(OC(F)(F)F)cc2)ccc1OCc1ccccc1 [Compound 2, (E)-3-[4-benzyloxy-4′-(trifluoromethoxy)biphenyl-3-yl]propenoic acid] | – | – | – | 35% | 31% |
| O=C(O)CCc1cc(-c2ccc(OC(F)(F)F)cc2)ccc1OCc1ccccc1 [Compound 3, 3-[4-benzyloxy-4′-(trifluoromethoxy)biphenyl-3-yl]propanoic acid] | 35% | 68% | – | – | – |
| CC(C)(C)c1ccc(COc2ccc(-c3ccc(OC(F)(F)F)cc3)cc2/C=C/C(=O)O)cc1 [Compound 4, (E)-3-{4-[4-(tert-butyl)benzyloxy]-4′-(trifluoromethoxy)biphenyl-3-yl}propenoic acid] | 84% | 78% | – | – | – |
| CC(C)(C)c1ccc(Oc2ccc(-c3ccc(OC(F)(F)F)cc3)cc2/C=C\C(=O)O)cc1 [Compound 12, (Z)-3-{4-[4-(tert-butyl)phenoxy]-4′-(trifluoromethoxy)biphenyl-3-yl}propenoic acid] | 92% | 94% | – | – | – |
| CN(C(=O)C(=O)O)c1cc(-c2ccc(OC(F)(F)F)cc2)ccc1OCc1ccc(C(C)(C)C)cc1 [Compound 18, N-{4-[4-(tert-butyl)benzyloxy]-4′-(trifluoromethoxy)biphenyl-3-yl}-N-methyloxamic acid] | 37% | 67% | 97% | – | – |
| O=C(O)CCc1cc(-c2ccc(OC(F)(F)F)cc2)ccc1OCc1ccc(C(F)(F)F)cc1 [Compound 26, 3-{4′-(trifluoromethoxy)-4-[4-(trifluoromethyl)benzyloxy]biphenyl-3-yl}propanoic acid] | – | 13% | 80% | – | – |
| COc1ccccc1COc1ccc(-c2ccc(OC(F)(F)F)cc2)cc1CCC(=O)O [Compound 28, 3-[4-(2-methoxybenzyloxy)-4′-(trifluoromethoxy)biphenyl-3-yl]propanoic acid] | – | 7% | 47% | – | – |
| CC(C)(C)c1ccc(COc2ccc(-c3ccc(OC(F)(F)F)cc3)cc2/C=C\C(=O)O)cc1 [Compound 30, (Z)-3-{4-[4-(tert-butyl)benzyloxy]-4′-(trifluoromethoxy)biphenyl-3-yl}propenoic acid] | 96% | 97% | 93% | – | – |
| O=C(O)CCc1cc(-c2ccc(OC(F)(F)F)cc2)ccc1OCc1ccc(Cl)cc1Cl [Compound 32, 3-[4-(2,4-dichlorobenzyloxy)-4′-(trifluoromethoxy)biphenyl-3-yl]propanoic acid] | 5% | 29% | 92% | – | – |
| CC(C)(C)c1ccc(COc2ccc(-c3ccccc3)cc2/C=C/C(=O)O)cc1 [Compound 36, (E)-3-{4-[4-(tert-butyl)benzyloxy]biphenyl-3-yl}propenoic acid] | 21% | 49% | 89% | – | – |
| CC(C)(C)c1ccc(COc2ccc(-c3ccc(F)cc3)cc2/C=C/C(=O)O)cc1 [Compound 38, (E)-3-{4-[4-(tert-butyl)benzyloxy]-4′-fluorobiphenyl-3-yl}propenoic acid] | 23% | 53% | 96% | – | – |
| CC(C)(C)c1ccc(COc2ccc(-c3ccc(F)cc3)cc2CCC(=O)O)cc1 [Compound 39, 3-{4-[4-(tert-butyl)benzyloxy]-4′-fluorobiphenyl-3-yl}propanoic acid] | 24% | 53% | 99% | – | – |
| CC(C)(C)c1ccc(COc2ccc(-c3ccc(C(F)(F)F)cc3)cc2CCC(=O)O)cc1 [Compound 41, 3-{4-[4-(tert-butyl)benzyloxy]-4′-(trifluoromethyl)biphenyl-3-yl}propanoic acid] | 23% | 60% | 99% | – | – |
| CC(C)(C)c1ccc(COc2ccc(-c3ccc(C(C)(C)C)cc3)cc2CCC(=O)O)cc1 [Compound 45, 3-{4′-(tert-butyl)-4-[4-(tert-butyl)benzyloxy]biphenyl-3-yl}propanoic acid] | 22% | 66% | >99% | – | – |
| CCCCc1ccc(-c2ccc(OCc3ccc(C(C)(C)C)cc3)c(CCC(=O)O)c2)cc1 [Compound 48, 3-{4′-butyl-4-[4-(tert-butyl)benzyloxy]biphenyl-3-yl}propanoic acid] | 29% | 66% | 94% | – | – |
| CC(C)(C)c1ccc(-c2ccc(OCc3ccccc3)c(/C=C/C(=O)O)c2)cc1 [Compound 52, (E)-3-[4-benzyloxy-4′-(tert-butyl)biphenyl-3-yl]propenoic acid] | 22% | 47% | 91% | – | – |
| CC(C)(C)c1ccc(-c2ccc(OCc3ccccc3)c(CCC(=O)O)c2)cc1 [Compound 53, 3-[4-benzyloxy-4′-(tert-butyl)biphenyl-3-yl]propanoic acid] | 20% | 50% | 93% | – | – |
| CC(C)(C)c1ccc(-c2ccc(OCc3ccc(OC(F)(F)F)cc3)c(/C=C/C(=O)O)c2)cc1 [Compound 56, (E)-3-{4′-(tert-butyl)-4-[4-(trifluoromethoxy)benzyloxy]biphenyl-3-yl}propenoic acid] | 32% | 69% | 94% | – | – |
| CC(C)(C)c1ccc(-c2ccc(OCc3ccc(OC(F)(F)F)cc3)c(CCC(=O)O)c2)cc1 [Compound 57, 3-{4′-(tert-butyl)-4-[4-(trifluoromethoxy)benzyloxy]biphenyl-3-yl}propanoic acid] | 28% | 64% | 94% | – | – |

Further lines, with some results ahead:

| Inhibition Rate of Human PAI-1 Activity (%) (compound 5 μM) | Inhibition Rate of Human PAI-1 Activity (%) (compound 10 μM) | Inhibition Rate of Human PAI-1 Activity (%) (compound 25 μM) | Compound | inhibition at 5 µM [1] | inhibition at 10 µM [1] |
| --- | --- | --- | --- | --- | --- |
| 83% | 94% | – | CC(C)(C)c1ccc(COc2ccc(-c3ccc(OC(F)(F)F)cc3)cc2NC(=O)C(=O)O)cc1 [Compound 6, N-{4-[4-(tert-butyl)benzyloxy]-4′-(trifluoromethoxy)biphenyl-3-yl}oxamic acid sodium salt] | – | – |
| – | 3% | – | O=C(O)CCc1cc(-c2ccc(OC(F)(F)F)cc2)ccc1Oc1ccc(C(=O)O)cc1 [Compound 15, 3-[4-(4-carboxyphenoxy)-4′-(trifluoromethoxy)biphenyl-3-yl]propanoic acid] | – | – |
| – | 11% | 64% | O=C(O)/C=C\c1cc(-c2ccc(OC(F)(F)F)cc2)ccc1OCc1ccccc1 [Compound 29, (Z)-3-[4-benzyloxy-4′-(trifluoromethoxy)biphenyl-3-yl]propenoic acid] | – | – |
| – | 9% | 25% | CC(C)(C)c1ccc(COc2ccc(-c3cccc(C(=O)O)c3)cc2CCC(=O)O)cc1 [Compound 31, 3-{4-[4-(tert-butyl)benzyloxy]-3′-carboxybiphenyl-3-yl}propanoic acid] | – | – |
| – | – | >99% | CCCCc1ccc(COc2ccc(-c3ccc(OC(F)(F)F)cc3)cc2CCC(=O)O)cc1 [Compound 35, 3-[4-(4-butylbenzyloxy)-4′-(trifluoromethoxy)biphenyl-3-yl]propanoic acid] | – | – |
| 22% | 47% | 97% | CC(C)(C)c1ccc(COc2ccc(-c3ccccc3)cc2CCC(=O)O)cc1 [Compound 37, 3-{4-[4-(tert-butyl)benzyloxy]biphenyl-3-yl}propanoic acid] | – | – |
| 28% | 57% | 95% | CC(C)(C)c1ccc(COc2ccc(-c3ccc(C(F)(F)F)cc3)cc2/C=C/C(=O)O)cc1 [Compound 40, (E)-3-{4-[4-(tert-butyl)benzyloxy]-4′-(trifluoromethyl)biphenyl-3-yl}propenoic acid] | – | – |
| 23% | 47% | 84% | COc1ccc(-c2ccc(OCc3ccc(C(C)(C)C)cc3)c(/C=C/C(=O)O)c2)cc1 [Compound 42, (E)-3-{4-[4-(tert-butyl)benzyloxy]-4′-methoxybiphenyl-3-yl}propenoic acid] | – | – |
| 14% | 34% | 93% | COc1ccc(-c2ccc(OCc3ccc(C(C)(C)C)cc3)c(CCC(=O)O)c2)cc1 [Compound 43, 3-{4-[4-(tert-butyl)benzyloxy]-4′-methoxybiphenyl-3-yl}propanoic acid] | – | – |
| 25% | 56% | 94% | CC(C)(C)c1ccc(COc2ccc(-c3ccc(C(C)(C)C)cc3)cc2/C=C/C(=O)O)cc1 [Compound 44, (E)-3-{4′-(tert-butyl)-4-[4-(tert-butyl)benzyloxy]biphenyl-3-yl}propenoic acid] | – | – |
| 16% | 25% | 21% | CSc1ccc(-c2ccc(OCc3ccc(C(C)(C)C)cc3)c(/C=C/C(=O)O)c2)cc1 [Compound 49, (E)-3-{4-[4-(tert-butyl)benzyloxy]-4′-(methylsulfanyl)biphenyl-3-yl}propenoic acid] | – | – |

Reference: patent US8044236B2, “Carboxilic acid derivatives” (Institute of Medicinal Molecular Design, Inc., priority 2006, dated 2011)
